Measurements reported in patent US5945561A, “Retinoid-like compounds” (Bristol-Myers Squibb Company, priority 1998, dated 1999).

Assays:
[1] = test system: trauma-induced caecal adhesions in female Wistar rat; assay: Trauma-induced caecal adhesion model in rats (oral treatment once daily for 7 days, examined on seventh postoperative day); format: in vivo; conditions: 1 × daily for 7 days, N = 5, female Wistar rats; for Mean number of adhesions/rat +/- SD: vehicle (peanut oil) 15.4 +/- 4.8; for Mean Adhesion Severity/Rat +/- SD: vehicle (peanut oil) 39.2 +/- 15
Description: Models of peritoneal adhesions induced by surgical trauma have been used to predict the clinical activity of a number of marketed anti-adhesion barrier devices. One such model is the trauma-induced caecal adhesion model in rats.
Adult female Wistar rats were used in our studies. The trauma induction was carried out using aseptic conditions in animals anesthetized with a mixture of Ketamine (100 mg/kg) and Rompun (10 mg/kg) given IP. A 2 cm midline abdominal incision was made and the caecum was exteriorized. Both sides of the caecum were abraded with a dry gauze until there was evidence of punctate bleeding. After replacing the organ in the abdominal cavity, the incision was closed. Trauma to the caecum produces fibrous scar tissue or adhesions to adjacent organs, peritoneal wall, or the omentum. Animals were treated with test compound orally. Oral treatments were administered once daily for up to 7 days.
On the seventh postoperative day, the animals were sacrificed and the peritoneal cavity was exposed and examined for adhesions. Three criteria that were used to evaluate the adhesions are: severity of the adhesions, extent or area of the ceacum involved with adhesions and the number of adhesions formed in each animal. Statistical analysis of the data was performed using students' T test. The following scoring system was used:
1.0 = easily separable, filmy, non-vascularized adhesions
covering 25% of the caecum;
2.0 = dense adhesions separated by blunt dissection and in-
volving 50% of the caecum;
3.0 = dense, fibrous, vascularized adhesions requiring sharp
dissection and covering 75% of the caecum;
4.0 = severe, dense, vascularized adhesions unable to
separate without tearing the adjacent membranes and
covering greater than 75% of the caecum.
The Dose Dependent Effect of Orally Dosed Test Compound on Trauma-induced Ceacal Adhesions in Female Wistar Rat

HL60 cells = assay: Differentiation and apoptosis of HL60 cells (NBT staining); format: cell-based; conditions: culture up to 9 days; for EC50 (culture day necessary to convert cells into a differentiated or apoptosed phenotype): HL60 cells, 1 μm compound, NBT staining
Text: At the end of each day of the culture period, cells were washed and stained with NBT (nitro blue tetrazolium) and counted.

Row | Structure (SMILES) | Mean number of adhesions/rat +/- SD ([1]; 3 mg/kg oral) | Mean Adhesion Severity/Rat +/- SD ([1]; 3 mg/kg oral) | Mean number of adhesions/rat +/- SD ([1]; 10 mg/kg oral) | Mean Adhesion Severity/Rat +/- SD ([1]; 10 mg/kg oral) | Mean number of adhesions/rat +/- SD ([1]; 25 mg/kg oral, * p = 0.03) | Mean Adhesion Severity/Rat +/- SD ([1]; 25 mg/kg oral, * p = 0.03) | differentiation and apoptosis of HL60 cells, comparison with t-RA (HL60 cells; 1 μm, result in words) | EC50 (culture day necessary to convert cells into a differentiated or apoptosed phenotype) (HL60 cells) [days]
1 | CC1(C)CC=C(c2ccccc2)c2cc3cc(-c4ccc(C(=O)O)cc4)ccc3cc21 [Example 1] | 14.6 +/- 2.7 | 36 +/- 7.0 | 12.2 +/- 1.6 | 30.2 +/- 5.5 | 6.8 +/- 2.4 | 14.8 +/- 5.6 | comparable to t-RA in this assay | 6.0
2 | CC1=C(/C=C/C(C)=C/C=C/C(C)=C/C(=O)O)C(C)(C)CCC1 [tRA, all-trans retinoic acid, reference compound] | – | – | – | – | – | – | – | 3.2
